US6379670B1, “Methods for treatment of multiple sclerosis using peptide analogs of human myelin basic protein” (Neurocrine Biosciences, Inc., priority 1994, dated 2002)
“Also recorded” adds a separate entry of the source. Non-standard residues stand in square brackets, D forms with d. No end group written: not given here.

How the values were obtained:
[1] = system: T cell lines LW 80, 88, 90 and 93; test: Specificity and phenotype of APL-reactive T cell lines from patient; format: cell-based, human; conditions: 25 μg/ml antigen
Experimental: Four cell cultures from one patient ([…], 32% frequency) showing a response (> three-fold over background) were expanded into cell lines (LW 80, 88, 90 and 93) by incubation in IL-2 for 11-14 days (1-2 passages). Once sufficient cells had grown up, they were cultured with either medium alone or 25 μg/ml of either whole MBP, MBP (83-99) or APL NBI-5788. After 24 hours, the supernatants were collected and the level of cytokines determined (see FIGS. 22 to 26). The remaining cultures were pulsed with radiolabeled thymidine and the extent of incorporation determined.

[2] = system: Dr2b restricted human T cell clones reactive to MBP; test: Human T cell proliferation, Dr2b restricted clones; format: cell-based
Experimental: Human T cells reactive to MBP (83-99) may alternatively be used to measure the ability of the peptide analog to inhibit proliferation of T cells induced by native MBP (83-99) peptide. MBP-specific T cells may be obtained as previously described by Martin et al., J. Immunol. 148:1359-1366, 1992. Briefly, T cell lines are established by culture of human T cells with irradiated, DR-matched peripheral blood cells in MEM supplemented with 2 mM L-glutamine, 50 μg/ml gentamicin, penicillin and streptomycin, 100 U/ml rIL-2, and 10% human AB negative serum. Proliferation of these T cell lines is stimulated by culturing a clone with varying concentration (1.1-30 μM) of native […] peptide, 50 μM of the peptide analog or SWM peptide, in the presence of irradiated, DR matched peripheral blood cells, following incubation for approximately 60 hours, the cells are pulsed with ^3H-thymidine for 12 hours and harvested. The amount of incorporated ^3H-thymidine is measured.
The ability of the peptide analogs NBI-5719, 5748, 5765, 5788 and 5789 (SEQ ID NOs: 4-8 respectively) to affect human T cell proliferation was assessed. A constant amount of peptide analog or the control peptide SWM (50 μM) was cultured with varying concentrations of native MBP(83-99) peptide (1.1-30 μM) in the presence of irradiated, DR matched peripheral blood cells and T cell clones derived from various MS patients. Human T cells (1×10^6) were cultured with DR matched, irradiated peripheral blood cells (PBL, 5×10^6) in medium containing IMDM supplemented with 3 μM MBP83-99, 2 mM L-glutamine, 50 μg/ml gentamicin penicillin/streptomycin, 100 U/ml r1L-2 and 10% human AB-negative serum. Cells were cultured for approximately 60 hours, pulsed with tritiated thymidine for 12 hours, and harvested. The amount of tritiated thymidine incorporated was measured, and the data represented as the mean plus or minus the standard error of the mean of replicate samples.
The ability of the peptide analog to inhibit the proliferative response of MBP-reactive T cells isolated from Dr2b (DrB1* 1501) individuals was determined. A constant amount of NBI-5788 (50 μM) was cultured with varying concentrations of native peptide (1.1-30 μM) in the presence of irradiated, DR matched peripheral blood cells and T cell clones derived from various MS patients.

[3] = system: peripheral blood T cells of MS patients; test: Frequency of antigen-reactive peripheral blood T cells after NBI-5788 treatment of MS patients (split-well); format: in vivo, human
Experimental: MS patients studied were those participating in phase I clinical trials using NBI-5788 administered subcutaneously (5, 10 or 20 mg) weekly for four weeks. Patients had MRI evaluations performed at baseline and at 6 and 12 weeks. All but 1 patient had secondary or primary progressive disease (SP or PP, respectively). For patients in group A, immunologic evaluations involving use of NBI-5788 as antigen could be performed only 9 months after completion of the treatment phase of the study. For patients in group B, immunologic evaluation was performed just prior to entry into the study (pre-treatment) and after 3 months following completion of the 1 month treatment phase. Two additional patients with SP MS, one with relapsing remitting (RR) MS and 3 normal controls were also studied.
(§1) Immune response to the peptide analog was assessed by measuring the frequency of proliferating peripheral blood T cells using a split-well microtiter method (i.e., number of positive wells {Δ cpm >1000, stimulation index>3} divided by the total number of wells assayed). Peripheral blood mononuclear cells (PBMC) were isolated from venous blood by Ficoll-Hypaque density gradient centrifugation, washed twice and resuspended in complete tissue culture medium (Iscove's modification of Dulbecco's medium containing 10% heat-inactivated, pooled, human A-B serum, 2 mM L-glutamine, 100 U/ml penicillin/streptomycin and 50 μg/ml gentamycin). PBMC from each patient were seeded at 10^5/well in 96 well, U-bottom microtiter plates containing 25 μg/ml whole MBP, 10 μg/ml NBI-5788 or medium alone in a volume of 200 μl. Three days later supernatants were collected and frozen at −80° C. and fresh medium containing IL-2 (10 U/ml) was added. IL-2-containg medium was refreshed on Day 7 and Day 11. On Day 14, the frequency of antigen response was determined by the “split well” technique. Briefly, cells from one primary well were split into replicate experimental wells in the presence of 10^5 freshly isolated autologous, irradiated peripheral blood mononuclear cells (APCs): one containing the original antigen (25 μg/ml) and one without antigen. Two days later supernatants were collected and the wells pulsed with 1 µCi/well [^3H]-thymidine ([…]) for the final 18 hours of culture. ^3H-Thymidine uptake was measured in a beta counter. […] The association between T cell frequency and NBI-5788 treatment was evaluated by χ^2 contingency analysis.

[4] = system: peripheral blood mononuclear cells; test: Frequency of antigen-reactive T cells in PBMC of untreated MS patients and healthy donors (split-well); format: cell-based, human; parameters: mean frequency of antigen-reactive T cells / frequency of antigen-reactive T cells in healthy subjects / antigen-reactive T cells, % Positive: concentration or dose not given beside the values
Experimental: as §1

[5] = subject MS-2, untreated MS patient
[6] = subject MS-3, untreated MS patient
[7] = subject MS-7, untreated MS patient
[8] = subject MS-8, untreated MS patient
[9] = subject MS-9, untreated MS patient
[10] = subject MS-10, untreated MS patient
[11] = subject MS-11, untreated MS patient

MBP(83-99) (83E>a, 84N>K, 89F>L, and 91K>A) ([dA]KPVVHLFANIVTPRTP) [NBI-5788]
thymidine incorporation of T cell line ([1]; Line 80 of patient): 25,696 ± 408 cpm
thymidine incorporation of T cell line ([1]; Line 88 of patient): 11,603 ± 424 cpm
thymidine incorporation of T cell line ([1]; Line 90 of patient): 25,317 ± 8,221 cpm
thymidine incorporation of T cell line ([1]; Line 93 of patient): 16,197 ± 2,095 cpm
inhibition of response of Dr2b T cell clones to MBP peptide ([2]; 50 μM, three different T cell lines, FIGS. 16-18): inhibited the ability of the T cell clones to respond to MBP peptide in a concentration dependent fashion
inhibition of MBP-dependent proliferation of clone 5F6 ([2]; Dr2b restricted clone 5F6, 50 μM, FIG. 19): inhibited the MBP-dependent proliferation in a concentration dependent fashion
mean frequency of NBI-5788-reactive T cells after treatment ([3]; 5, 10 or 20 mg, four times weekly, seven MS patients): 35.8±12.8%
mean frequency of MBP-reactive T cells after treatment ([3]; after treatment with NBI-5788 (n=7)): 16.4±5.7%
change of frequency of MBP-reactive T cells following administration ([3]; human, in vivo): does not change markedly
change of NBI-5788-reactive T cells in peripheral blood after subcutaneous administration versus untreated MS patients ([3]; human, in vivo, sc): significant (χ^2=82.7, p<0.001) increase; also recorded: strongly induced
antigen-reactive T cells, Positive/total wells ([4]; Total of healthy donors): 0/96
antigen-reactive T cells, Positive/total wells ([4]; Total of untreated MS patients): 19/308
antigen-reactive T cells, % Positive ([4]; healthy donor HD-1): 0%
antigen-reactive T cells, Positive/total wells ([4]; healthy donor HD-1): 0/48
antigen-reactive T cells, % Positive ([4]; healthy donor HD-2): 0%
antigen-reactive T cells, Positive/total wells ([4]; healthy donor HD-2): 0/48
antigen-reactive T cells, % Positive [4, 5]: 6.8%
antigen-reactive T cells, Positive/total wells [4, 5]: 3/44
antigen-reactive T cells, % Positive [4, 6]: 2.3%
antigen-reactive T cells, Positive/total wells [4, 6]: 1/44
antigen-reactive T cells, % Positive [4, 7]: 6.8%
antigen-reactive T cells, Positive/total wells [4, 7]: 3/44
antigen-reactive T cells, % Positive [4, 8]: 11.4%
antigen-reactive T cells, Positive/total wells [4, 8]: 5/44
antigen-reactive T cells, % Positive [4, 9]: 9.1%
antigen-reactive T cells, Positive/total wells [4, 9]: 4/44
antigen-reactive T cells, % Positive [4, 10]: 4.5%
antigen-reactive T cells, Positive/total wells [4, 10]: 2/44
antigen-reactive T cells, % Positive [4, 11]: 2.3%
antigen-reactive T cells, Positive/total wells [4, 11]: 1/44
frequency of antigen-reactive T cells in healthy subjects ([4]; two healthy subjects, MBP-reactive cells detected in one of two): no NBI-5788-reactive T cells were detected
mean frequency of antigen-reactive T cells ([4]; untreated MS patients (n=7)): 6.2±1.3%
